According to ChEMBL document CHEMBL1201862, “PubChem BioAssay data set” (2004):
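These data come from cells grown in 96-well plates and exposed to compound for 48 hours at five concentrations. The concentration for 50% growth inhibition is given as GI50.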 Active and inactive are the calls of the source. Cut-off read from the data, not from the text of the source: active = GI50 up to about 1.1 µM and inactive = higher.

Experiments:
Assay in all cases: NCI anticancer screen, dose series, 48 h
[1] = tested on: SW-620
[2] = tested on: SNB-75
[3] = tested on: LOX IMVI
[4] = tested on: EKVX
[5] = tested on: XF498
[6] = tested on: TK-10
[7] = tested on: M14
[8] = tested on: UO-31
[9] = tested on: HT-29
[10] = tested on: MOLT-4
[11] = tested on: NCI-H522
[12] = tested on: SK-OV-3
[13] = tested on: OVCAR-8
[14] = tested on: KM12
[15] = tested on: SN12C
[16] = tested on: K562
[17] = tested on: MDA-N
[18] = tested on: T47D
[19] = tested on: MDA-MB-435
[20] = tested on: DU-145

SMILES | GI50 [1] | GI50 [2] | GI50 [3] | GI50 [4] | GI50 [5] | GI50 [6] | GI50 [7] | GI50 [8] | GI50 [9] | GI50 [10] | GI50 [11] | GI50 [12] | GI50 [13] | GI50 [14] | GI50 [15] | GI50 [16] | GI50 [17] | GI50 [18] | GI50 [19] | GI50 [20]
COC(=O)C(=C/c1ccc(OC)cc1)/C(C(=O)O)=C(/C)c1ccccc1 | > 100 µM (inactive) | > 100 µM (inactive) | > 100 µM (inactive) | > 100 µM (inactive) | > 100 µM (inactive) | > 100 µM (inactive) | > 100 µM (inactive) | > 100 µM (inactive) | > 100 µM (inactive) | > 100 µM (inactive) | > 100 µM (inactive) | > 100 µM (inactive) | > 100 µM (inactive) | > 100 µM (inactive) | > 100 µM (inactive) | > 100 µM (inactive) |  |  |  | 
Cc1cc(Cl)ccc1NC(=O)CCCC(=O)C1C/C(=N/O)CC/C1=N\O (stereo not drawn) | > 100 µM (inactive) | > 100 µM (inactive) |  | > 100 µM (inactive) | > 100 µM (inactive) | > 100 µM (inactive) | > 100 µM (inactive) | > 100 µM (inactive) | > 100 µM (inactive) | > 100 µM (inactive) | > 100 µM (inactive) | > 100 µM (inactive) | > 100 µM (inactive) | > 100 µM (inactive) | > 100 µM (inactive) | > 100 µM (inactive) |  |  |  | 
O=[N+]([O-])c1ccc(N=P(c2ccccc2)(c2ccccc2)c2ccccc2)n2nnnc12 | > 100 µM (inactive) | 21.9 µM (inactive) | > 100 µM (inactive) | 58.7 µM (inactive) | 32.7 µM (inactive) | > 100 µM (inactive) | > 100 µM (inactive) | 78.7 µM (inactive) | > 100 µM (inactive) | 77.8 µM (inactive) | 31 µM (inactive) | 46.1 µM (inactive) | 31 µM (inactive) | 66.4 µM (inactive) | 82.4 µM (inactive) | 67 µM (inactive) |  |  |  | 
C#CC(C)(C)Oc1cc(O)c2c(=O)c3ccccc3n(C)c2c1 |  | 40.4 µM (inactive) | 19.3 µM (inactive) | > 100 µM (inactive) | > 100 µM (inactive) | > 100 µM (inactive) | > 100 µM (inactive) | > 100 µM (inactive) | 34 µM (inactive) | > 100 µM (inactive) | > 100 µM (inactive) | > 100 µM (inactive) | 35.8 µM (inactive) |  | > 100 µM (inactive) | > 100 µM (inactive) |  |  |  | 
C=C1C(=O)OC2C/C(C)=C/CC/C(C)=C/CCC3(COC(C)=O)OC3CC12 (stereo not drawn) | 2.04 µM (inactive) | 11.6 µM (inactive) | 9.46 µM (inactive) | 19.6 µM (inactive) | 7.11 µM (inactive) | 7.14 µM (inactive) | 6.15 µM (inactive) | 12.7 µM (inactive) | 8.32 µM (inactive) | 4.42 µM (inactive) | 1.51 µM (inactive) | 13.7 µM (inactive) | 6.52 µM (inactive) | 13.7 µM (inactive) | 15.6 µM (inactive) | 5.68 µM (inactive) |  |  |  | 
N#Cc1nc(Nc2ccc([N+](=O)[O-])cc2)sc1N | 20.5 µM (inactive) | 39.4 µM (inactive) | 7.19 µM (inactive) | 32.2 µM (inactive) | 17.3 µM (inactive) | 22.9 µM (inactive) | 22 µM (inactive) | 7.38 µM (inactive) | 33.5 µM (inactive) | 2.48 µM (inactive) | 4.05 µM (inactive) | 26.9 µM (inactive) | 19.4 µM (inactive) | 21.9 µM (inactive) | 7.8 µM (inactive) | 8.75 µM (inactive) |  |  |  | 
CCOC(=O)C1C(c2ccc(Cl)cc2Cl)NC(c2ccc(C)cc2)C(C(=O)OC)S1(=O)=O (stereo not drawn) | > 100 µM (inactive) | 20.1 µM (inactive) | 81.5 µM (inactive) | 85.9 µM (inactive) | 3.33 µM (inactive) | > 100 µM (inactive) | > 100 µM (inactive) | 37.9 µM (inactive) | > 100 µM (inactive) | 5.46 µM (inactive) | > 100 µM (inactive) | > 100 µM (inactive) | > 100 µM (inactive) | > 100 µM (inactive) |  | 13.3 µM (inactive) |  |  |  | 
O=C(c1ccccc1)c1nc2ccc(Cl)cc2c2c1Cc1ccccc1-2 | > 100 µM (inactive) | 46.5 µM (inactive) | > 100 µM (inactive) | > 100 µM (inactive) | > 100 µM (inactive) | > 100 µM (inactive) | > 100 µM (inactive) | > 100 µM (inactive) |  | > 100 µM (inactive) | > 100 µM (inactive) |  | > 100 µM (inactive) | > 100 µM (inactive) | > 100 µM (inactive) | > 100 µM (inactive) |  |  |  | 
O=C(NCCCCCCCCCCCCNC(=O)c1cccc2ccccc12)c1cccc2ccccc12 | > 67.5 µM (inactive) | 26.1 µM (inactive) | > 84.9 µM (inactive) | > 62.8 µM (inactive) | > 47.8 µM (inactive) | > 52.7 µM (inactive) | > 100 µM (inactive) | > 42.7 µM (inactive) | > 100 µM (inactive) | > 100 µM (inactive) | > 100 µM (inactive) | > 47.5 µM (inactive) | 31.5 µM (inactive) | 97.3 µM (inactive) | > 68.4 µM (inactive) | > 100 µM (inactive) |  |  |  | 
O=C1C2C3C=C4c5ccccc5N(c5ccccc5)C4([C@@H]2C(=O)N1c1ccc(F)cc1)[C@H]1C(=O)N(c2ccc(F)cc2)C(=O)[C@@H]31 (stereo partly drawn) | > 100 µM (inactive) | > 100 µM (inactive) | > 100 µM (inactive) | > 100 µM (inactive) | > 100 µM (inactive) | > 100 µM (inactive) | > 100 µM (inactive) | 20.9 µM (inactive) |  | > 100 µM (inactive) | > 100 µM (inactive) |  | > 100 µM (inactive) | > 100 µM (inactive) | 82 µM (inactive) | > 100 µM (inactive) |  |  |  | 
COc1cccc2c1C(=O)c1c(O)c3c(c(O)c1C2=O)C[C@@](O)(/C(C)=N\O)C[C@@H]3OC1CC(N)C(O)C(C)O1 (stereo partly drawn) | 0.504 µM (active) | 0.501 µM (active) | 0.388 µM (active) | 3.19 µM (inactive) | 0.21 µM (active) | 3.24 µM (inactive) | 2.28 µM (inactive) | 10 µM (inactive) | 1.34 µM (inactive) | 0.0661 µM (active) | 0.315 µM (active) | 2.23 µM (inactive) | 1.15 µM (inactive) | 2.39 µM (inactive) | 0.741 µM (active) | 0.553 µM (active) | 1.88 µM (inactive) | 723 nM (active) | 8.45 µM (inactive) | 1.72 µM (inactive)
CC(C)N(C(=O)C12C3C4C1C1C2C3C41C(=O)C(C)(C)C)C(C)C (stereo not drawn) | 47.4 µM (inactive) | > 100 µM (inactive) | > 100 µM (inactive) | > 100 µM (inactive) | > 100 µM (inactive) | > 100 µM (inactive) | > 100 µM (inactive) | 46.1 µM (inactive) | 76.7 µM (inactive) | 26.7 µM (inactive) | 14 µM (inactive) | > 100 µM (inactive) | > 100 µM (inactive) | > 100 µM (inactive) | > 100 µM (inactive) | 20.8 µM (inactive) |  |  |  | 
